For test [1], the system named is class I and class II HDAC. Nature of the test: Colorimetric HDAC activity assay in HeLa or fibroblast lysates. It counts as biochemical. To be noted: HeLa and human fibroblast lysates; two concentrations (treatment concentration and ten times); FIG. 6A-B.
Experimental: A colorimetric HDAC activity assay was performed in triplicate using 100-200 μg of HeLa or fibroblast lysates following the manufacturer's protocol (K331; Biovision, Mountain View, Calif.).
Whether inhibition of class I and class II HDAC activities is a shared biochemical function that could account for the effects of all four small molecules was examined. Using lysates from HeLa cells and primary human fibroblasts, an in vitro colorimetric assay of HDAC activity was performed. Two concentrations of each small molecule were used. The first concentration was that used to treat primary human fibroblasts in the experiments reported herein, which minimally affects growth. The second concentration was ten times the first concentration and is lethal in cell culture. […] (* p≦0.00009; paired t-test; Bars=SEM for n≧3 independent experiments).
Test [2] has as its system HSP70 and HSP90. Description: Immunoblot analyses of HSP expression. It is filed as cell-based, human. Conditions: for heat shock response (HSR): normal human fibroblasts. A general note: Immunoblotting shows a protein as a band on a membrane.
Experimental: (§4) Expression of key components of the HSR, UPR, the autophagic response, and the antioxidant response were monitored at the transcriptional, translational, and/or post-translational level. […] Due to the transient nature of these responses, several components of each pathway were monitored at various time points within a 24 hour treatment. At least two normal human fibroblast lines were tested in three or more independent experiments. […] The average of the maximal increase in protein expression within a 24 hour time frame was also compared to the untreated sample. Activation of each pathway was assessed by an increase in one or more components of each pathway.
Normal human fibroblasts were treated at various time points within 24 hours and the average of the maximum protein expression of HSP70 (70 kDa) and HSP90 (90 kDa) is plotted as in FIG. 2F. Actin (43 kDa) was used as a loading control. (UT=untreated cells; * statistical significance (p≦0.05); Bars=SEM for n≧3 independent experiments).
In test [3] the test system is BIP, phosphorylated eIF2α, XBP1. Description: Immunoblot analyses of UPR protein expression and XBP1 splicing. It counts as cell-based, human. On the procedure:
Cell lysates were collected in mammalian protein extraction reagent (m-PER; Thermo Scientific, Rockford, Ill.) plus 1×protease inhibitor (Sigma-Aldrich) and 1×Halt phosphatase inhibitor (Thermo Scientific). Denatured SDS-PAGE and immunoblot analyses were performed using the following antibodies: phosphorylated JNK and β-actin from Santa Cruz Biotechnology, HSP70, HSP90, BIP, phosphorylated eIF2α, and XBP1 from Cell Signaling, APG8 (Abgent, San Diego, Calif.), and SOD2 (Stressgen, Ann Arbor, Mich.). Quantitation was performed using a Fuji Intelligent Dark box II, FUJI LAS-1000 Lite software and Image Gauge v4.22 software (Tokyo, Japan).
(§1) Expression of key components of the HSR, UPR, the autophagic response, and the antioxidant response were monitored at the transcriptional, translational, and/or post-translational level. These responses are known to be transiently activated in response to various cellular stressors. The degree of induction of each component can vary depending on the metabolic state of the cell (e.g., confluency, cell passage number) (Kultz 2003; Lallemand et al., 1998; Westerheide et al., 2009). Due to the transient nature of these responses, several components of each pathway were monitored at various time points within a 24 hour treatment. At least two normal human fibroblast lines were tested in three or more independent experiments. […] The average of the maximal increase in protein expression within a 24 hour time frame was also compared to the untreated sample. Activation of each pathway was assessed by an increase in one or more components of each pathway.
(§2) UPR markers evaluated included the central UPR regulator glucose regulated protein 78 (BIP) and other components that are stimulated after the activation of the three ER transmembrane receptors: PKR-like ER kinase (PERK), inositol requiring 1 (IRE1), and activating transcription factor 6 (Fedoroff 2006). […] 2 alpha (eIF2a) is phosphorylated by PERK, attenuates general translation, and induces activating transcription factor 4 (ATF4). CHOP promotes reactivation of PERK. XBP1 mRNA is non-conventionally spliced by the endonuclease activity of IRE1 upon UPR activation.
(§3) Normal human fibroblasts were treated with drugs as indicated. The expression of the UPR genes ATF4, CHOP, and BIP was measured as described in FIG. 2E. […] Normal human fibroblasts were treated at various time points and the average of the maximum protein expression of BIP (78 kDa) and phosphorylated eIF2α (38 kDa) is plotted as in FIG. 2F. Actin (43 kDa) was used as a loading control and is the same blot as FIG. 2F. UT denotes untreated cells. M denotes marker lane. […] Normal human fibroblasts were treated. The expression of the unspliced form (XBP1-us; 33 kDa) and the activated and spliced form of XBP1 (XBP1-s; 54 kDa) was analyzed by immunoblotting. BP1-s is a larger protein than XBP1-us due to non-canonical mRNA splicing which results in a larger carboxy-terminal domain. […] The average of the maximum expression of XBP1-s (within 24 hrs.) is plotted as in FIG. 2F. Actin was used as a loading control.

Test [4] deals with ATF4, CHOP, and BIP. Nature of the test: RT-PCR of unfolded protein response (UPR) genes. It is filed as cell-based, human. To be noted: for BIP expression at the transcriptional level: normal human fibroblasts, FIG. 4A. On the procedure: Following the manufacturer's protocols, DNase I-treated cDNA was synthesized using Superscript III or Thermoscript reverse transcriptase (Invitrogen). PCR reactions were performed in duplicate on the Roche Lightcycler 3.5 (Basel, Switzerland) or the Bio-Rad iCycler (Hercules, Calif.) using Quantitech SYBR green PCR mix (Qiagen, Valencia, Calif.). GeNorm software calculated a normalization factor for each sample using the relative amounts of at least two of the following reference genes, β2-microglobulin, […], actin, and/or eukaryotic elongation factor 1A (Vandesompele et al., 2002). Primers for the various experiments described herein are listed below.
as §1, §2, §3

In test [5] the test system is Spinal Muscular Atrophy. Conditions: Lunn et al., 2008; cited from earlier work.
For test [6], the system named is SIRT1. Description: SIRT1 protein expression in normal human fibroblasts. It is filed as cell-based.
In test [7] the test system is XALD fibroblasts. Description: Inhibition studies: ATP5B immunofluorescence of drug-induced mitochondrial biogenesis. It is filed as cell-based, human. Conditions: four days; FIG. 2A. On the procedure:
Performed as described in Watkins et al., 1995 using 4% formaldehyde, 1% Triton X-100, primary antibody anti-ATP5B (Millipore, Billerica, Mass.) or anti-ABCD3 (Invitrogen, Carlsbad, Calif.), and secondary antibody sheep anti-mouse IgG FITC-conjugated (Santa Cruz Biotechnology, Santa Cruz, Calif.) or goat anti-rabbit IgG rhodamine-conjugated (Jackson ImmunoResearch, West Grove, Pa.).
Antimycin A (10 ng/mL), LY294002, PD98059, RO-31-8425, SB203580, SP600125, and L-NAME were obtained from Sigma. Compound C was from EMD Biosciences (Darmstadt, Germany). Human fibroblasts were treated with each inhibitor. Then, 45-75 min later, either 4PBA, HU, TSA, or SFN was added. Cells were stained four to six days after treatment with one of the small molecules. As a control for inhibitors dissolved in DMSO, fibroblasts were treated with an equivalent amount of DMSO in the absence of inhibitor. […]
In FIGS. 2A-B, the JNK inhibitor SP600125 (10 μM+inh) was utilized. […] XALD fibroblasts were treated with each drug for four days with or without SP600125. (400× magnification). […] Normal human fibroblasts were treated with each of the small four molecules with or without SP600125 for six days. Quantitative in-cell western analyses were performed using anti-ATP5B.

For test [8], the system named is JUN, PGC1α and PGC1β. Description: RT-PCR of JUN and mitochondrial transcription factors. It counts as cell-based, human. Conditions: FIG. 2E; for PGC1α and PGC1β transcript levels (abundance of mitochondrial transcription factors): 48 hours or more of treatment; for JUN transcript levels: normal human fibroblasts, six hours of treatment.
Experimental: (§5) Following the manufacturer's protocols, DNase I-treated cDNA was synthesized using Superscript III or Thermoscript reverse transcriptase (Invitrogen). PCR reactions were performed in duplicate on the Roche Lightcycler 3.5 (Basel, Switzerland) or the Bio-Rad iCycler (Hercules, Calif.) using Quantitech SYBR green PCR mix (Qiagen, Valencia, Calif.). GeNorm software calculated a normalization factor for each sample using the relative amounts of at least two of the following reference genes, β2-microglobulin, glyceraldehyde-6-phosphate, actin, and/or eukaryotic elongation factor 1A (Vandesompele et al., 2002).
The relative gene expression for each treatment compared to untreated normal human fibroblasts was calculated and the fold change (drug treated/untreated) is shown.
The subject of test [9] is BCN1 and ATG5. Nature of the test: RT-PCR of autophagy genes. Conditions: for ATG5 mRNA levels / BCN1 mRNA levels: normal human fibroblasts, FIG. 5A. It counts as cell-based, human.
Experimental: as §5, §4
To monitor activation of autophagy, the expression of three classical autophagy markers was examined. The three classical autophagy markers are: (i) beclin-1 (BCN1), (ii) autophagy protein 5 (ATG5), and (iii) microtubule-associated protein 1 light chain 3 (LC3 or APG8). […] Normal human fibroblasts were treated as indicated. The expression of BCN1 and ATG5 were measured as described in FIG. 2E. After TSA treatment, the levels of ATG5 mRNA were measured in two independent experiments in duplicate.
For test [10], the system named is Sickle Cell Disease. To be noted: Hsiao et al., 2006; cited from earlier work.
[11] abbreviates: normal human fibroblasts, FIG. 4B.

Take 4-phenylbutyrate [4PBA]: in [1], the “HDAC activity compared to untreated lysates” value is listed as “significantly decreased”. In test [2], the “heat shock response (HSR)” value was “activated”. For the same compound, in test [3] (setting [11]), the “BIP expression at the translational level” value is given as “significantly increased”. The “BIP expression at the transcriptional level” value in test [4] is given as “significantly increased”. In addition, the “Therapeutic Effect” value in [5] was “increase percentage of full”. Besides, the SIRT1 protein expression entry in test [6] is recorded as “no marked changes”. Besides, the “mitochondrial biogenesis in XALD fibroblasts” value (“mitochondrial biogenesis” for short) in test [7] was “increased”. Moreover, in test [8], the “PGC1α and PGC1β transcript levels (abundance of mitochondrial transcription factors)” value (“PGC1α and PGC1β transcript levels” below) is given as “increased”; the JUN transcript levels result is “significantly increased”. In [9], the “ATG5 mRNA levels” value was “increased” and the “BCN1 mRNA levels” value is recorded as “increased”. The “Therapeutic Effect” value in [10] is reported as “increase F-cell production”.
Regarding `NC(=O)NO` [HU, hydroxyurea], the “HDAC activity compared to untreated lysates” value in test [1] is “neither concentration of HU nor SFN reduced”. The “heat shock response (HSR)” value in test [2] is “activated”. The “BIP expression at the translational level” value in test [3] (setting [11]) is on record as “significantly increased”. Moreover, in test [4], the “BIP expression at the transcriptional level” value is listed as “significantly increased”. The “Therapeutic Effect” value in test [5] was “increase percentage of full”. For the same compound, the SIRT1 protein expression entry in test [6] is given as “no marked changes”. Also, the “mitochondrial biogenesis” value in test [7] is on record as “increased”. Further, in test [8], the “PGC1α and PGC1β transcript levels” value was “increased”; the JUN transcript levels result is “significantly increased”. Also, in test [9], the “ATG5 mRNA levels” value was “increased” and the “BCN1 mRNA levels” value was “not reproducibly changed”. The “Therapeutic Effect” value in test [10] is “increase F-cell production”.
Take `C[S@@+]([O-])CCCCN=C=S` [SFN, 1-isothiocyanato-4R-(methylsulfinyl)butane]: the “HDAC activity compared to untreated lysates” value in test [1] is reported as “neither concentration of HU nor SFN reduced”. Moreover, in [2] (in vitro sulforaphane studies), the “total HSP70 protein levels increase” value is reported as 3-4 fold and the “total HSP90 protein levels increase” value is 3-4 fold. Moreover, the “heat shock response (HSR)” value in test [2] is “activated”. Also, in test [3] (in vitro sulforaphane studies), the “BIP increase at the translational level” value is given as 2-3 fold, the “amount of spliced XBP1 protein increase” value is on record as 3-4 and the “total amount of XBP1 protein increase” value is 3-4. Moreover, in test [3] (setting [11]), the “BIP expression at the translational level” value is reported as “significantly increased” and the eIF2α phosphorylation entry is recorded as “modestly increased”. The “pro-survival capabilities of all three UPR branches” value in test [3] (transcriptional, post-transcriptional, translational and post-translational levels) is given as “activated”. For the same compound, in test [4] (in vitro sulforaphane studies), the “ATF4 mRNA expression increase” value is listed as 4-5 fold, the “BIP increase at the transcriptional level” value was 2-3 fold and the “CHOP mRNA expression increase” value is given as 4-5 fold. Also, the “BIP expression at the transcriptional level” value in test [4] is reported as “significantly increased”. Moreover, the SIRT1 protein expression entry in test [6] is “no marked changes”. Further, the “mitochondrial biogenesis” value in test [7] is recorded as “increased”. In addition, in test [8], the “PGC1α and PGC1β transcript levels” value was “increased”; the JUN transcript levels entry was “not consistently changed”. Further, in test [9] (in vitro sulforaphane studies), the “ATG5 mRNA levels increase” value is listed as 3 fold and the “BCN1 mRNA levels increase” value worked out at 5 fold. Also, in test [9], the “ATG5 mRNA levels” value was “increased” and the “BCN1 mRNA levels” value was “increased”.
Regarding `CC(/C=C/C(=O)NO)=C\[C@@H](C)C(=O)c1ccc(N(C)C)cc1` [TSA, trichostatin A], the “HDAC activity compared to untreated lysates” value in test [1] is given as “significantly decreased”. The “heat shock response (HSR)” value in [2] was “activated”. For the same compound, the “BIP expression at the translational level” value in [3] (setting [11]) was “significantly increased”. Also, the “BIP expression at the transcriptional level” value in test [4] is “significantly increased”. Besides, the “Therapeutic Effect” value in test [5] is “increase percentage of full”. For the same compound, the SIRT1 protein expression entry in test [6] was “no marked changes”. The “mitochondrial biogenesis” value in test [7] is “increased”. For the same compound, in [8], the “PGC1α and PGC1β transcript levels” value is recorded as “increased”; the JUN transcript levels result is recorded as “significantly increased”. Besides, in [9], the “ATG5 mRNA levels” value is on record as “increased” and the “BCN1 mRNA levels” value was “increased”. Besides, in test [10], the “Therapeutic Effect” value is “increase F-cell production”.

(Values after patent US8937050B2, “Methods and compositions for treatment of autism” (The Johns Hopkins University, priority 2011, dated 2015).)
